Results from ChEMBL document CHEMBL1133280, “Discovery and synthesis of a potent sulfonamide ET(B) selective antagonist” (Bioorg Med Chem Lett, 2000).
pIC50: −log10 of the molar value.

Tests used:
[1] = molecular target: T1, Endothelin receptor type B (Sus scrofa, UniProt P35463); assay: Binding affinity towards displacement of [125 I] ET-3 from COS-7 cells transfected with porcine Endothelin B receptor; assay type: cell-based
T1 sequence (P35463 whole entry): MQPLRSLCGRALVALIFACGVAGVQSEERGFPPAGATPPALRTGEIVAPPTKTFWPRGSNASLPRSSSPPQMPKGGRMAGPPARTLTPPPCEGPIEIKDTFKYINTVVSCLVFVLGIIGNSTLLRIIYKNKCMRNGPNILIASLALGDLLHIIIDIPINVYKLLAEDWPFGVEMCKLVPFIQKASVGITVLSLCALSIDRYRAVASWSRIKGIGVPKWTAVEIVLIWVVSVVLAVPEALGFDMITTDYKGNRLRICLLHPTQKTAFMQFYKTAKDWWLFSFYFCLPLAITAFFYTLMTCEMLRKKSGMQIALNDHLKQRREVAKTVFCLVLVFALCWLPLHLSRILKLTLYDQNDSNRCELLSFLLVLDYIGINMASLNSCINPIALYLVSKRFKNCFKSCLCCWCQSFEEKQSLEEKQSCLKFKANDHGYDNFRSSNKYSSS

[2] = Ratio of IC50 of rat ETA receptor to that of porcine ETB receptor
Endothelin-1 receptor = molecular target: T2, Endothelin-1 receptor (Rattus norvegicus, UniProt P26684); assay: Displacement of [125 I] ET-1 from rat aortic smooth muscle A7r5 cells transfected with Endothelin A receptor; assay type: cell-based
T2 sequence (P26684 whole entry): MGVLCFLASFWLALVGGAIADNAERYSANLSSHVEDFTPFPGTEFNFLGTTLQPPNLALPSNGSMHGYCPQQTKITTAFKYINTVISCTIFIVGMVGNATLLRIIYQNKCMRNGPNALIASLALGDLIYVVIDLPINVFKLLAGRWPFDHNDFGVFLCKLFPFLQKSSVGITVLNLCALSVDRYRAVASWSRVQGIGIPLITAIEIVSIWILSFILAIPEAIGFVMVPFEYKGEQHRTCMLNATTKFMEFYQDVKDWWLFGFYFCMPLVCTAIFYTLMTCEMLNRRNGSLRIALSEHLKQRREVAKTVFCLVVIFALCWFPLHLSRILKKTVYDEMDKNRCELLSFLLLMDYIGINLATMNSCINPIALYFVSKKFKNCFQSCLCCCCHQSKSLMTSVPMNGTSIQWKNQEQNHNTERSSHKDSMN

| pIC50 [1] | Ratio [2] | pIC50 (Endothelin-1 receptor) | Compound |
| --- | --- | --- | --- |
| 6.25 | 11 | 5.21 | COc1cccc(Sc2c(NS(=O)(=O)c3ccc(C(C)(C)C)cc3)noc2CO)c1 |
| 6.62 | 26 | 5.20 | COc1cccc(Sc2c(NS(=O)(=O)c3ccc(C(C)(C)C)cc3)noc2CCCC(N)=O)c1 |
| 6.85 | 2.3 | 6.49 | COc1cccc(Sc2c(NS(=O)(=O)c3ccc(C(C)(C)C)cc3)noc2CCCO)c1 |
| 4.46 |  | < 4.00 | CSc1c(NS(=O)(=O)c2ccc(C(C)(C)C)cc2)noc1C |
| 5.55 | 0.3 | 6.10 | CCc1onc(NS(=O)(=O)c2ccc(C(C)(C)C)cc2)c1Sc1cccc(OC)c1 |
| 8.70 | 850 | 5.77 | COc1cccc(Sc2c(NS(=O)(=O)c3ccc(C(C)(C)C)cc3)noc2CCCC=O)c1 |
| 7.07 | 18 | 5.82 | COc1cccc(Sc2c(NS(=O)(=O)c3ccc(C(C)(C)C)cc3)noc2CCC/C=N/O)c1 |
|  |  | 4.55 | Cc1snc(NS(=O)(=O)c2ccc(N)cc2)c1C |
| 6.62 | 2.6 | 6.20 | COc1cccc(Sc2c(NS(=O)(=O)c3ccc(C(C)(C)C)cc3)noc2CCCCO)c1 |
| 6.30 | 8.6 |  | COc1cccc(Sc2c(NS(=O)(=O)c3ccc(C(C)(C)C)cc3)noc2CCCC(=O)O)c1 |
| 6.40 | 3.3 | 5.89 | COc1cccc(Sc2c(NS(=O)(=O)c3ccc(C(C)(C)C)cc3)noc2CCCC(C)=O)c1 |
| 6.30 | 0.8 | 6.42 | COc1cccc(Sc2c(NS(=O)(=O)c3ccc(C(C)(C)C)cc3)noc2CCC=O)c1 |
|  |  | < 3.30 | Cc1nsc(NS(=O)(=O)c2ccc(C(C)(C)C)cc2)c1C |
|  |  | 4.15 | Cc1onc(NS(=O)(=O)c2ccc(N)cc2)c1Cc1ccccc1 |
| 4.52 |  | < 4.00 | Cc1onc(NS(=O)(=O)c2ccc(C(C)(C)C)cc2)c1I |
| 7.70 | 70 | 5.85 | COc1cccc(Sc2c(NS(=O)(=O)c3ccc(C(C)(C)C)cc3)noc2CCCCC=O)c1 |
|  |  | 4.55 | Cc1onc(NS(=O)(=O)c2ccc(C(C)(C)C)cc2)c1C |
| 6.52 | 1.8 | 6.28 | COc1cccc(Sc2c(NS(=O)(=O)c3ccc(C(C)(C)C)cc3)noc2C)c1 |
| < 3.00 |  | 4.96 | Cc1onc(NS(=O)(=O)c2ccc(N)cc2)c1I |
| 6.28 | 2.5 | 5.89 | COc1cccc(Sc2c(NS(=O)(=O)c3ccc(C(C)(C)C)cc3)noc2CCCC#N)c1 |
| 6.37 | 1.8 | 6.11 | COc1cccc(Sc2c(NS(=O)(=O)c3ccc(C(C)(C)C)cc3)noc2CCO)c1 |
|  |  | 5.46 | Cc1onc(NS(=O)(=O)c2ccc(N)cc2)c1Cl |
|  |  | 5.47 | CCc1c(NS(=O)(=O)c2ccc(N)cc2)noc1C |
| 6.51 | 1.3 | 6.40 | COC(=O)CCCc1onc(NS(=O)(=O)c2ccc(C(C)(C)C)cc2)c1Sc1cccc(OC)c1 |
